In patent US10076481B2, “Compositions for treating periodontitis and dental calculus accumulation” (The Research Foundation for the State University of New York, priority 2016, dated 2018):

Legend:
Type in all cases: cell-based
human salivary sediment [1] = assay: pH response of salivary sediment incubated with individual amino acids, with or without 28 mM urea; conditions: 37° C.
Method: (§1) To obtain human salivary sediment for performance of the experiments described herein, paraffin wax (4.02 g) was chewed by human subjects (including some subjects 70+ years of age, where oral alkalinity is commonly more prevalent) to stimulate the flow of saliva. Prior to the experiment, the subjects fasted for 12 hours and abstained from oral hygiene for at least 24 hours (to enable spontaneous dental plaque bacterial growth and buildup on their teeth and other oral surfaces (Kleinberg. I., 1967, Arch. Oral Biol., 1457-1473)). As a result of this process, oral bacteria were dislodged by the inert paraffin wax from the teeth and oral soft tissue surfaces in the mouths of the human subjects. About 40 ml of whole saliva was then collected from each subject by expectoration into a 50 ml polypropylene centrifuge tube chilled by surrounding it with cracked ice (Korayem, M. R., Traudt, M., and Kleinberg, I., 1990; Sandham, H. J. and Kleinberg, I., 1973).
(§2) The saliva collected was centrifuged at 1740 g in an International Equipment Company clinical centrifuge (Needham Heights, Mass.) for 15 min. at 4° C. The supernatant was decanted and discarded. To wash the remaining bacterial sediment, 40 ml of ice-cold distilled water was added and mixed in a vortex mixer. The resulting sediment-water mixture was centrifuged at 1740 g for 15 min. at 4° C. The supernatant was again decanted and discarded. This bacterial sediment washing procedure was repeated twice. To the washed bacterial sediment, 10 ml of deionized water was added and the composition was then mixed briefly and thoroughly in a vortex mixer. The sediment was transferred to a 15 ml polypropylene centrifuge tube. The resulting suspension was centrifuged at 1740 g for 15 min. at 4° C. and the resulting supernatant was aspirated and discarded.
To the packed 1.0 ml of salivary sediment obtained after centrifugation, 1.0 ml of deionized water was added to make a 50% salivary sediment suspension for the preparation of the following standard incubation mixtures: salivary sediment at 16.7% (v/v), with and without added individual amino acids: serine, glycine, alanine, valine, and/or histidine, etc. at either a 90 or 120 mM concentration; and leucine, isoleucine, aspartic acid, glutamine, cysteine, cystine, lysine, arginine, tyrosine, phenylalanine, threonine, proline, methionine, tyrosine, glutamine, and/or asparagine, each at 9 mM. These mixtures were each prepared in the presence or absence of 28 mM urea, which has a relatively high pH.
The initial pH of the incubation mixtures was carefully adjusted to or near 7.0 with either 1.0 M NaOH or 1.0 M HCl. Each bacterial mixture was then incubated overnight in a water bath at 37° C. The pH of each mixture was then determined using a combined pH and reference electrode (Radiometer Analytical SAS, Villeurbanne, France) at pre-determined time intervals.

human salivary sediment [2] = assay: pH response of salivary sediment when initial pH was not adjusted to neutrality
Method: Separately, incubation mixtures containing salivary sediment at 16.7% (v/v), 238 mM serine, and 6 mM sodium phytate, with or without 6.7 mM urea, were prepared and incubated without adjusting the initial pH to or near 7.0, except for salivary sediment mixed with deionized water, which was adjusted to pH 8.10 with 1 M NaOH. Determination of the pH of each of these experimental entities were carried out at pre-determined time intervals (i.e., at 0 min., 15 min., 30 min., 1 h, 2 h, 3 h, 4 h, and 21 h) with a pH meter (Radiometer Copenhagen, type PHM26, Radiometer America, Westlake, Ohio) and a combination pH electrode (Radiometer Analytical, Cedex, France).

human salivary sediment [3] = assay: pH response of salivary sediment with serine, with or without sodium phytate and 6.7 mM urea
Method: as §1, §2
Separately, incubation mixtures containing salivary sediment at 16.7% (v/v) and 6.7 or 8.3 mM serine in the presence or absence of 6.7 mM urea, 20 or 25 mM serine and/or 3 mM sodium phytate (Sigma-Aldrich, St. Louis, Mo.), both in the presence or absence of 6.7 mM urea were prepared. Mixtures were incubated overnight at 37° C. in a water bath incubator (Kleinberg, I. and Hall, G., 1968; Salako, N. O. and Kleinberg, I., 1989), after adjusting the initial pH to or near 7.0 with 1N NaOH or 1N HCl.
Separately, incubation mixtures containing salivary sediment at 16.7% (v/v), 20 or 25 mM serine, and 6 mM sodium phytate were prepared in the presence or absence of 6.7 mM urea. Mixtures were incubated overnight at 37° C. in a water bath incubator, after adjusting the initial pH to or near 7.0 with 1N NaOH or 1N HCl. […]

[4] = 9 mM amino acid + 28 mM urea, 4 hours
[5] = 9 mM amino acid + 28 mM urea, 21 hours (overnight)
[6] = 9 mM amino acid, without urea, 21 hours (overnight)
[7] = 9 mM amino acid, without urea, 4 hours
[8] = 90 mM amino acid + 28 mM urea, 4 hours
[9] = 90 mM amino acid + 28 mM urea, 21 hours
[10] = 120 mM amino acid + 28 mM urea, 4 hours
[11] = 120 mM amino acid + 28 mM urea, 21 hours

N[C@@H](Cc1ccccc1)C(=O)O [phenylalanine]
pH of salivary sediment (human salivary sediment [1]; [4]): 8.87 | pH of salivary sediment (human salivary sediment [1]; [5]): 8.65

N[C@@H](CSSC[C@H](N)C(=O)O)C(=O)O [cystine]
pH of salivary sediment (human salivary sediment [1]; [4]): 8.80 | pH of salivary sediment (human salivary sediment [1]; [5]): 8.50 | pH of salivary sediment (human salivary sediment [1]; [6]): 6.35

C[C@@H](O)[C@H](N)C(=O)O [threonine]
pH of salivary sediment (human salivary sediment [1]; [4]): 8.90 | pH of salivary sediment (human salivary sediment [1]; [5]): 8.60 | pH of salivary sediment (human salivary sediment [1]; [7]): 6.20 | pH of salivary sediment (human salivary sediment [1]; [6]): remained about unchanged

N[C@@H](Cc1c[nH]c2ccccc12)C(=O)O [tryptophan]
pH of salivary sediment (human salivary sediment [1]; [4]): 9.00 | pH of salivary sediment (human salivary sediment [1]; [5]): 8.90 | pH of salivary sediment (human salivary sediment [1]; [6]): 6.20

N[C@@H](CC(=O)O)C(=O)O [aspartic acid]
pH of salivary sediment (human salivary sediment [1]; [4]): 8.90 | pH of salivary sediment (human salivary sediment [1]; [5]): 8.60 | pH of salivary sediment (human salivary sediment [1]; [6]): 7.00

N[C@@H](Cc1ccc(O)cc1)C(=O)O [tyrosine]
pH of salivary sediment (human salivary sediment [1]; [4]): 8.87 | pH of salivary sediment (human salivary sediment [1]; [5]): 8.62

CC[C@H](C)[C@H](N)C(=O)O [isoleucine]
pH of salivary sediment (human salivary sediment [1]; [4]): 8.90 | pH of salivary sediment (human salivary sediment [1]; [5]): 8.65 | pH of salivary sediment (human salivary sediment [1]; [7]): 6.40 | pH of salivary sediment (human salivary sediment [1]; [6]): 6.62

NC(N)=O [urea]
pH of salivary sediment (human salivary sediment [1]; 28 mM urea alone, 4 hours): about 9.0 | pH of salivary sediment (human salivary sediment [1]; 28 mM urea alone, 21 hours): 8.8

N=C(N)NCCC[C@H](N)C(=O)O [arginine]
pH of salivary sediment (human salivary sediment [1]; [5]): 8.80 | pH of salivary sediment (human salivary sediment [1]; [6]): 7.97

NC(=O)C[C@H](N)C(=O)O [asparagine]
pH of salivary sediment (human salivary sediment [1]; [4]): 8.90 | pH of salivary sediment (human salivary sediment [1]; [5]): 8.70 | pH of salivary sediment (human salivary sediment [1]; [7]): 6.55 | pH of salivary sediment (human salivary sediment [1]; [6]): 7.35

NCC(=O)O [glycine]
pH of salivary sediment (human salivary sediment [1]; [8]): 8.72 | pH of salivary sediment (human salivary sediment [1]; [9]): 8.65 | pH of salivary sediment (human salivary sediment [1]; [10]): 8.90 | pH of salivary sediment (human salivary sediment [1]; [11]): 8.55

CSCC[C@H](N)C(=O)O [methionine]
pH of salivary sediment (human salivary sediment [1]; [4]): 9.00 | pH of salivary sediment (human salivary sediment [1]; [5]): 8.90 | pH of salivary sediment (human salivary sediment [1]; [6]): 6.20

N[C@@H](CO)C(=O)O [serine]
initial pH of incubation mixture (human salivary sediment [2]; absence of urea, initial pH not adjusted): 8.10 | pH of incubation mixture (human salivary sediment [2]; absence of urea, initial pH not adjusted, 21 hours): 6.50 | initial pH of incubation mixture (human salivary sediment [2]; with urea, initial pH not adjusted to 7.00): 8.10 | pH of incubation mixture (human salivary sediment [2]; with urea, initial pH not adjusted, end of the incubation): 6.85 | pH of salivary sediment (human salivary sediment [1]; [8]): 8.22 | pH of salivary sediment (human salivary sediment [1]; [10]): 8.30 | pH of salivary sediment (human salivary sediment [3]; 6.70 mM serine + 6.70 mM urea, 21 hours): 7.60 | pH of salivary sediment (human salivary sediment [3]; 6.70 mM serine, without urea, 4 hours): 5.95 | pH of salivary sediment (human salivary sediment [3]; 6.70 mM serine, without urea, 21 hours): 6.30 | pH of salivary sediment (human salivary sediment [3]; 8.30 mM serine + 6.70 mM urea, 21 hours): 7.50 | pH of salivary sediment (human salivary sediment [3]; 8.30 mM serine, without urea, 4 hours): 5.90 | pH of salivary sediment (human salivary sediment [3]; 8.30 mM serine, without urea, 21 hours): 6.25 | pH of salivary sediment (human salivary sediment [3]; 20 mM serine, absence of urea, 4 hours (FIG. 16, 6 mM sodium phytate series)): 7.15 | pH of salivary sediment (human salivary sediment [3]; 20 mM serine, absence of urea, 4 hours, initial pH 6.90 (FIG. 15, 3 mM sodium phytate series)): 6.20 | pH of salivary sediment (human salivary sediment [3]; 20 mM serine, absence of urea, 21 hours (FIG. 15, 3 mM sodium phytate series)): 6.65 | pH of salivary sediment (human salivary sediment [3]; 20 mM serine, absence of urea, 21 hours (FIG. 16, 6 mM sodium phytate series)): 6.47 | pH of salivary sediment (human salivary sediment [3]; 25 mM serine, absence of urea, 4 hours (FIG. 16, 6 mM sodium phytate series)): 6.17 | pH of salivary sediment (human salivary sediment [3]; 25 mM serine, absence of urea, 4 hours, initial pH 7.00 (FIG. 15, 3 mM sodium phytate series)): 6.17 | pH of salivary sediment (human salivary sediment [3]; 25 mM serine, absence of urea, 21 hours (FIG. 15, 3 mM sodium phytate series)): 6.70 | pH of salivary sediment (human salivary sediment [3]; 25 mM serine, absence of urea, 21 hours (FIG. 16, 6 mM sodium phytate series)): 6.45

N[C@@H](CCC(=O)O)C(=O)O [glutamic acid]
pH of salivary sediment (human salivary sediment [1]; [4]): 8.90 | pH of salivary sediment (human salivary sediment [1]; [5]): 8.50 | pH of salivary sediment (human salivary sediment [1]; [6]): 6.70

O=C(O)[C@@H]1CCCN1 [proline]
pH of salivary sediment (human salivary sediment [1]; [4]): 9.00 | pH of salivary sediment (human salivary sediment [1]; [5]): 8.80 | pH of salivary sediment (human salivary sediment [1]; [7]): 6.10 | pH of salivary sediment (human salivary sediment [1]; [6]): remained about unchanged

NC(=O)CC[C@H](N)C(=O)O [glutamine]
pH of salivary sediment (human salivary sediment [1]; [4]): 9.00 | pH of salivary sediment (human salivary sediment [1]; [5]): 8.80 | pH of salivary sediment (human salivary sediment [1]; [7]): 5.95 | pH of salivary sediment (human salivary sediment [1]; [6]): 6.25

N[C@@H](Cc1c[nH]cn1)C(=O)O [histidine]
pH of salivary sediment (human salivary sediment [1]; [9]): 8.30 | pH of salivary sediment (human salivary sediment [1]; [11]): 8.22

N[C@@H](CS)C(=O)O [cysteine]
pH of salivary sediment (human salivary sediment [1]; [4]): 8.75 | pH of salivary sediment (human salivary sediment [1]; [5]): 8.55 | pH of salivary sediment (human salivary sediment [1]; [7]): 6.35 | pH of salivary sediment (human salivary sediment [1]; [6]): 6.60

NCCCC[C@H](N)C(=O)O [lysine]
pH of salivary sediment (human salivary sediment [1]; [5]): 8.70 | pH of salivary sediment (human salivary sediment [1]; [6]): remained at neutrality

C[C@H](N)C(=O)O [alanine]
pH of salivary sediment (human salivary sediment [1]; [8]): 8.82 | pH of salivary sediment (human salivary sediment [1]; [9]): 8.80 | pH of salivary sediment (human salivary sediment [1]; [10]): 8.72 | pH of salivary sediment (human salivary sediment [1]; [11]): 8.67

CC(C)C[C@H](N)C(=O)O [leucine]
pH of salivary sediment (human salivary sediment [1]; [4]): 8.85 | pH of salivary sediment (human salivary sediment [1]; [5]): 8.60 | pH of salivary sediment (human salivary sediment [1]; [7]): 6.15 | pH of salivary sediment (human salivary sediment [1]; [6]): 6.40

CC(C)[C@H](N)C(=O)O [valine]
pH of salivary sediment (human salivary sediment [1]; [8]): 8.90 | pH of salivary sediment (human salivary sediment [1]; [9]): 8.85 | pH of salivary sediment (human salivary sediment [1]; [10]): 8.80 | pH of salivary sediment (human salivary sediment [1]; [11]): 8.70
